Measurements from US9725490B2, “ERAP1-derived peptide and use thereof” (TOKUSHIMA UNIVERSITY, priority 2011, dated 2017).

Tested on: estrogen-dependent gene expression in MCF-7 cells
Experiment: Microarray transcriptome analysis, MCF-7
Assay type: cell-based, human
Settings: for Fold change: E2 alone/E2 + peptide
Experimental: MCF-7 cells were treated with 10 μM ERAP1-peptide (Peptide) and the ERAP1-scramble peptide (scrPeptide). Then, immediately, the cells were stimulated with 10 nM E2 for 1 hour. Subsequently, the obtained cell lysate solution was digested with trypsin and subjected to 2DICAL. […] MCF-7 cells were treated with 10 μM ERAP1-peptide. Then, immediately, the cells were stimulated with 10 nM E2 for 5, 10 and 15 hours. Then, RNA extraction and then Cy3-cRNA synthesis were performed, and the Cy3-cRNA was subjected to the microarray. The data were statistically analyzed by GeneSpring software, and the ratio to the value at 0 hour was calculated. **P<0.01.
MCF-7 cells were treated with 10 μM ERAP1-peptide. Then, immediately the cells were stimulated with 10 nM E2. Then, RNA extraction was performed. Cy3 labeled cRNA was synthesized with Low Input Quick Amp Labeling Kit (Agilent Technologies, Loveland, Colo., USA) and hybridized with a custom microarray at 65° C. for 17 hours. The microarray was washed. Then, the product hybridized was measured with a microarray scanner (Agilent). The results thereof were digitized with Future Extraction software (Agilent). The data were statistically analyzed with GeneSpring software (Agilent), and the ratio to the value at 0 hour was calculated.

SMILES: CSCC[C@H](NC(=O)[C@H](CCC(N)=O)NC(=O)[C@H](CCCNC(=N)N)NC(=O)[C@H](CCCNC(=N)N)NC(=O)[C@H](CCCNC(=N)N)NC(=O)[C@H](CCCNC(=N)N)NC(=O)[C@H](CCCNC(=N)N)NC(=O)[C@H](CCCNC(=N)N)NC(=O)[C@H](CCCNC(=N)N)NC(=O)[C@H](CCCNC(=N)N)NC(=O)[C@H](CCCNC(=N)N)NC(=O)[C@H](CCCNC(=N)N)NC(=O)[C@@H](N)CCCNC(=N)N)C(=O)N[C@@H](CC(C)C)C(=O)N[C@@H](CO)C(=O)N[C@@H](CC(=O)O)C(=O)N[C@@H](CC(C)C)C(=O)N[C@H](C(=O)N[C@@H](CC(C)C)C(=O)N[C@@H](CCC(N)=O)C(=O)N[C@@H](CC(C)C)C(=O)N[C@@H](CCCNC(=N)N)C(=O)N[C@@H](CCC(N)=O)C(=O)N[C@@H](CCCNC(=N)N)C(=O)O)[C@@H](C)O [ERAP1-peptide]
- change of mRNA expressions (10 μM, 10 nM E2, versus E2): decreased significantly and genome-widely
- Fold change (gene ADCY1): 5.92
- Fold change (gene AKR1C1): 7.79
- Fold change (gene AKR1C3): 6.37
- Fold change (gene AKR1C4): 6.00
- Fold change (gene ANKS6): 9.00
- Fold change (gene ARHGAP36): 7.08
- Fold change (gene BASP1): 8.01
- Fold change (gene BCAS3): 5.92
- Fold change (gene BMP5): 7.72
- Fold change (gene BMP7): 8.40
- Fold change (gene BTG3): 9.06
- Fold change (gene C1orf59): 8.43
- Fold change (gene C6orf150): 5.95
- Fold change (gene C13orf18): 5.79
- Fold change (gene CA2): 9.87
- Fold change (gene CALB2): 6.05
- Fold change (gene CALHM2): 8.63
- Fold change (gene CALML5): 6.39
- Fold change (gene CAV1): 7.44
- Fold change (gene CAV2): 6.63
- Fold change (gene CCDC83): 6.76
- Fold change (gene CEACAM5): 6.84
- Fold change (gene CMTM3): 7.06
- Fold change (gene CNKSR3): 6.27
- Fold change (gene CTNND2): 6.83
- Fold change (gene CXCR7): 10.15
- Fold change (gene CYBA): 9.51
- Fold change (gene DCLK1): 7.84
- Fold change (gene DDX43): 8.53
- Fold change (gene DPYSL5): 5.76
- Fold change (gene ECHDC1): 7.73
- Fold change (gene ELOVL2): 7.14
- Fold change (gene FABP5): 6.38
- Fold change (gene FAM189A2): 6.33
- Fold change (gene FZD6): 7.54
- Fold change (gene GPER): 7.51
- Fold change (gene GSTT1): 7.93
- Fold change (gene HAR1B): 7.11
- Fold change (gene HMCN1): 7.54
- Fold change (gene HPDL): 7.68
- Fold change (gene KCNJ3): 8.31
- Fold change (gene KCNJ8): 6.44
- Fold change (gene KCNQ1OT1): 6.60
- Fold change (gene KIF1A): 7.12
- Fold change (gene KLK6): 5.98
- Fold change (gene KLK11): 8.08
- Fold change (gene LOC389332): 6.52
- Fold change (gene LOC654433): 6.72
- Fold change (gene LOC732272): 7.09
- Fold change (gene LOC100508679): 9.85
- Fold change (gene LPIN2): 6.27
- Fold change (gene LRRC10B): 7.17
- Fold change (gene LXN): 11.09
- Fold change (gene LYPD1): 6.66
- Fold change (gene MAGED4B): 6.80
- Fold change (gene MALL): 6.05
- Fold change (gene MARCKS): 6.99
- Fold change (gene ME1): 6.91
- Fold change (gene MEST): 8.84
- Fold change (gene MUCL1): 6.13
- Fold change (gene NCRNA00052): 7.27
- Fold change (gene NUP210L): 7.84
- Fold change (gene OOEP): 6.57
- Fold change (gene PCDH10): 5.78
- Fold change (gene PDGFRL): 5.77
- Fold change (gene PM20D2): 6.56
- Fold change (gene PMP22): 5.93
- Fold change (gene POTEB): 7.70
- Fold change (gene POTED): 6.82
- Fold change (gene PPARG): 7.30
- Fold change (gene RAMP1): 5.82
- Fold change (gene RAMP3): 7.25
- Fold change (gene RGS22): 7.22
- Fold change (gene RP86KA3): 7.84
- Fold change (gene S100A14): 6.73
- Fold change (gene SALL4): 6.60
- Fold change (gene SDR42E1): 8.01
- Fold change (gene SERPINA5): 5.87
- Fold change (gene SLC6A14): 8.73
- Fold change (gene SLC7A2): 8.32
- Fold change (gene SLC27A6): 8.00
- Fold change (gene SNX7): 7.48
- Fold change (gene SOX3): 6.52
- Fold change (gene SPANXA1): 6.68
- Fold change (gene SPANXB2): 6.55
- Fold change (gene ST8SIA4): 6.99
- Fold change (gene TFPI2): 6.82
- Fold change (gene THBD): 5.97
- Fold change (gene TLR2): 5.74
- Fold change (gene TMEM26): 6.66
- Fold change (gene TMEM64): 6.46
- Fold change (gene TMEM150C): 7.57
- Fold change (gene TOX2): 6.29
- Fold change (gene TPM4): 7.60
- Fold change (gene TSPYL5): 9.50
- Fold change (gene UGT1A6): 5.78
- Fold change (gene UGT1A8): 6.60
- Fold change (gene WISP2): 6.73
- Fold change (gene XIST): 8.53
- Fold change (gene ZNF618): 6.39
